The values that follow are results of earlier work, collected in patent US20050118265A1, “Antifungal oral dosage forms and the methods for preparation” (priority 2003, published 2005).

Each structure is given as a SMILES string.

A word on the pKa: it is the pH at which an ionisable group is half protonated.

For data set [1] the following is noted: based on extrapolation of values obtained from methanolic solutions.
The conditions of data set [2]: pH 8.1.

With `CCC(C)n1ncn(-c2ccc(N3CCN(c4ccc(OCC5COC(Cn6cncn6)(c6ccc(Cl)cc6Cl)O5)cc4)CC3)cc2)c1=O` (racemic) [Itraconazole, (±)-1-[(RS)-sec-butyl]-4-[p-[4-[p-[[(2R,4S)-2-(2,4-dichlorophenyl)-2-(1H-1,2,4-triazol-1-ylmethyl)-1,3-dioxolan-4-yl]methoxy]phenyl]-1-piperazinyl]phenyl]-Ä 2-1,2,4-triazolin-5-one], the pKa in data set [1] is given as 3.70. For the same compound, the “log (n-octanol/water) partition coefficient” value in data set [2] is recorded as 5.66. In addition, for the setting “alcohol”, the solubility in alcohol result is on record as “very slightly soluble”. Besides, the solubility in dichloromethane result (dichloromethane) is reported as “freely soluble”. The solubility in ethanol result (ethanol alone) was “poorly soluble”. The solubility in water entry (water) is recorded as “insoluble”.
